# According to patent US20100063047A1 (KALYPSYS, INC., priority 2008, published 2010):
# How the values were obtained:
# human H4 = target: T1, human H4 (Homo sapiens, UniProt Q9H3N8); test: In vitro histamine H4 receptor cell-based aequorin bioluminescence antagonist assay; settings: CHO-K1 cells expressing human H4, aequorin and Gα16; histamine at EC80
# T1 construct: host or cells: CHO-K1, also expressing mitochondrion-targeted aequorin and human Gα16
# In short: (§1)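 CHO-K1 cells stably expressing human H1 or H4 plus mitochondrial aequorin (H4 also with Gα16), loaded with 5 μM coelenterazine-h for 4 h at ~21 °C. Compounds preincubated 15 min at room temperature, then histamine at EC80 added.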
# human H1 = target: T2, human H1 (Homo sapiens, UniProt P35367); test: In vitro histamine H1 receptor cell-based aequorin bioluminescence antagonist assay; settings: CHO-K1 cells expressing human H1 and aequorin; histamine at EC80; read-out: H1 Antagonist EC50
# T2 construct: host or cells: CHO-K1, also expressing mitochondrion-targeted aequorin
# T2 sequence (P35367 whole entry): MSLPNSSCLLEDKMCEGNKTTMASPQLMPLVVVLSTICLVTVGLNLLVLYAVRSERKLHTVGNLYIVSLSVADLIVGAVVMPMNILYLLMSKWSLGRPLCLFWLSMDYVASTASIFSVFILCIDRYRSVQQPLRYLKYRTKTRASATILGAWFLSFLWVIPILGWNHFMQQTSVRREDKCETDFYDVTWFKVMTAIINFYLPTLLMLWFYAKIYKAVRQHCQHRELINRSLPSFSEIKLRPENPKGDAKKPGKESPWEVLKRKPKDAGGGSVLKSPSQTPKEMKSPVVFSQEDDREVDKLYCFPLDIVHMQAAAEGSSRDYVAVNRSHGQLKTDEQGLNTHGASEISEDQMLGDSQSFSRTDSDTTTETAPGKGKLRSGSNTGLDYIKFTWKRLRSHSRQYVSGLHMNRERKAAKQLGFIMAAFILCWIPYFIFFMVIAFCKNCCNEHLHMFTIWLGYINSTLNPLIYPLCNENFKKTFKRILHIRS
# In short: as §1
# T1 sequence (Q9H3N8 whole entry): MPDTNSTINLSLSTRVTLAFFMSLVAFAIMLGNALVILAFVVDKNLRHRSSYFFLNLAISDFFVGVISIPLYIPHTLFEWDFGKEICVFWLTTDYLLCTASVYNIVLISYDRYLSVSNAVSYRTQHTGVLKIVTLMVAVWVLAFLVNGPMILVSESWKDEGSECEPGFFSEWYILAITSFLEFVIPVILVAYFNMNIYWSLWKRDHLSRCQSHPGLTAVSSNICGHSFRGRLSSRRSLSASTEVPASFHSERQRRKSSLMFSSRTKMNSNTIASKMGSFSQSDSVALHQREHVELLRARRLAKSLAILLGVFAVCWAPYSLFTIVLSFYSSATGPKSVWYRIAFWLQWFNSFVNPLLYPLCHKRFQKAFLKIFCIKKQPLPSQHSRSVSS
SMILES,EC50 (human H4) [µM],EC50 (human H1) [µM]
"Cc1csc2ncnc(NC(C)CO)c12 (stereo not drawn) [Example 63, 2-({5-methylthieno[2,3-d]pyrimidin-4-yl}amino)propan-1-ol]",> 10,> 10
"C=CCN(c1ncnc2scc(C)c12)C1CCCCC1 [Example 223, N-cyclohexyl-5-methyl-N-(prop-2-en-1-yl)thieno[2,3-d]pyrimidin-4-amine]",> 10,> 10
"CCN(CCCCO)c1ncnc2scc(C)c12 [Example 207, 4-[ethyl({5-methylthieno[2,3-d]pyrimidin-4-yl})amino]butan-1-ol]",> 10,> 10
"Cc1ccc(S(=O)(=O)NCCNc2ncnc3scc(C)c23)cc1 [Example 177, 4-methyl-N-[2-({5-methylthieno[2,3-d]pyrimidin-4-yl}amino)ethyl]benzene-1-sulfonamide]",> 10,> 10
"C#CCN(C)c1ncnc2scc(C)c12 [Example 180, N,5-dimethyl-N-(prop-2-yn-1-yl)thieno[2,3-d]pyrimidin-4-amine]",> 10,> 10
"Cc1csc2ncnc(N3CCCC3CO)c12 (stereo not drawn) [Example 193, (1-{5-methylthieno[2,3-d]pyrimidin-4-yl}pyrrolidin-2-yl)methanol]",> 10,> 10
CCOC(=O)N1CCN(c2ncnc3scc(C)c23)CC1 [Example 230],> 10,> 10
"Cc1csc2ncnc(N3CCN(c4ccc(F)cc4F)CC3)c12 [Example 267, 1-(2,4-difluorophenyl)-4-{5-methylthieno[2,3-d]pyrimidin-4-yl}piperazine]",> 10,> 10
"Cc1csc2ncnc(C(=O)NCc3ccc(Cl)cc3)c12 [Example 34, N-(4-chlorobenzyl)-5-methylthieno[2,3-d]pyrimidine-4-carboxamide]",> 10,> 10
"C#CCN(Cc1ccc(Cl)cc1Cl)c1ncnc2scc(C)c12 [Example 281, N-[(2,4-dichlorophenyl)methyl]-5-methyl-N-(prop-2-yn-1-yl)thieno[2,3-d]pyrimidin-4-amine]",> 10,> 10
"Cc1csc2ncnc(N(Cc3cccnc3)Cc3cccnc3)c12 [Example 268, 5-methyl-N,N-bis(pyridin-3-ylmethyl)thieno[2,3-d]pyrimidin-4-amine]",> 10,> 10
"Cc1csc2ncnc(N3Cc4ccccc4C3)c12 [Example 208, 2-{5-methylthieno[2,3-d]pyrimidin-4-yl}-2,3-dihydro-1H-isoindole]",> 10,> 10
"Cc1csc2ncnc(N(C)C3CCCCC3)c12 [Example 200, N-cyclohexyl-N,5-dimethylthieno[2,3-d]pyrimidin-4-amine]",> 10,> 10
"Cc1csc2ncnc(N(CCO)[C@H](C)c3ccccc3)c12 [Example 236, 2-({5-methylthieno[2,3-d]pyrimidin-4-yl}[(1R)-1-phenylethyl]amino)ethan-1-ol]",> 10,> 10
"Clc1ccc(CCNc2ncnc3[nH]ccc23)cc1 [Example 28, N-(4-chlorophenethyl)-7H-pyrrolo[2,3-d]pyrimidin-4-amine]",> 10,> 10
"Cc1csc2ncnc(N3CCCC(C(N)=O)C3)c12 (stereo not drawn) [Example 213, 1-{5-methylthieno[2,3-d]pyrimidin-4-yl}piperidine-3-carboxamide]",> 10,> 10
"Cc1csc2ncnc(N(C)C[C@H](O)c3ccc(O)c(O)c3)c12 [Example 248, 4-[(1R)-1-hydroxy-2-[methyl({5-methylthieno[2,3-d]pyrimidin-4-yl})amino]ethyl]benzene-1,2-diol]",> 10,> 10
"Cc1csc2ncnc(N3CCN(c4ccccn4)CC3)c12 [Example 234, 1-{5-methylthieno[2,3-d]pyrimidin-4-yl}-4-(pyridin-2-yl)piperazine]",> 10,> 10
"Cc1csc2ncnc(NCC#N)c12 [Example 52, 2-({5-methylthieno[2,3-d]pyrimidin-4-yl}amino)acetonitrile]",> 10,> 10
"Cc1csc2ncnc(NCC(C)C)c12 [Example 61, 5-methyl-N-(2-methylpropyl)thieno[2,3-d]pyrimidin-4-amine]",> 10,> 10
"Cc1csc2ncnc(NCc3cccnc3)c12 [Example 84, 5-methyl-N-(pyridin-3-ylmethyl)thieno[2,3-d]pyrimidin-4-amine]",> 10,> 10
"Cc1csc2ncnc(N3CCN(c4ccc(O)cc4)CC3)c12 [Example 243, 4-(4-{5-methylthieno[2,3-d]pyrimidin-4-yl}piperazin-1-yl)phenol]",> 10,> 10
"Cc1ccc([C@@H](C)Nc2ncnc3scc(C)c23)cc1 [Example 115, 5-methyl-N-[(1R)-1-(4-methylphenyl)ethyl]thieno[2,3-d]pyrimidin-4-amine]",> 10,> 10

SMILES,EC50 (human H4) [µM],EC50 (human H1) [µM]
"Cc1csc2ncnc(NCc3ccncc3)c12 [Example 86, 5-methyl-N-(pyridin-4-ylmethyl)thieno[2,3-d]pyrimidin-4-amine]",> 10,> 10
"Cc1csc2ncnc(NCC(=O)c3ccccc3)c12 [Example 161, 2-({5-methylthieno[2,3-d]pyrimidin-4-yl}amino)-1-phenylethan-1-one]",> 10,> 10
"CCOC(=O)CC1C(=O)NCCN1c1ncnc2scc(C)c12 (stereo not drawn) [Example 249, ethyl 2-(1-{5-methylthieno[2,3-d]pyrimidin-4-yl}-3-oxopiperazin-2-yl)acetate]",> 10,> 10
"Cc1csc2ncnc(N(CCO)CCO)c12 [Example 198, 2-[(2-hydroxyethyl)({5-methylthieno[2,3-d]pyrimidin-4-yl})amino]ethan-1-ol]",> 10,> 10
"Cc1csc2ncnc(NCCC#N)c12 [Example 57, 3-({5-methylthieno[2,3-d]pyrimidin-4-yl}amino)propanenitrile]",> 10,> 10
"CCN(c1ncnc2scc(C)c12)C(C)C [Example 186, N-ethyl-5-methyl-N-(propan-2-yl)thieno[2,3-d]pyrimidin-4-amine]",> 10,> 10
"Cc1csc2ncnc(NC3CCCc4ccccc43)c12 (stereo not drawn) [Example 138, 5-methyl-N-(1,2,3,4-tetrahydronaphthalen-1-yl)thieno[2,3-d]pyrimidin-4-amine]",> 10,> 10
"CCN(CC)CCCC(C)Nc1ncnc2scc(C)c12 (stereo not drawn) [Example 151, diethyl[4-({5-methylthieno[2,3-d]pyrimidin-4-yl}amino)pentyl]amine]",> 10,> 10
"Cc1csc2ncnc(NCCO)c12 [Example 56, 2-({5-methylthieno[2,3-d]pyrimidin-4-yl}amino)ethan-1-ol]",> 10,> 10
"CCN(C)c1ncnc2scc(C)c12 [Example 179, N-ethyl-N,5-dimethylthieno[2,3-d]pyrimidin-4-amine]",> 10,> 10
"CCN(CC)c1ncnc2scc(C)c12 [Example 181, N,N-diethyl-5-methylthieno[2,3-d]pyrimidin-4-amine]",> 10,> 10
"Cc1cccc(N2CCN(c3ncnc4scc(C)c34)CC2)c1C [Example 254, 1-(2,3-dimethylphenyl)-4-{5-methylthieno[2,3-d]pyrimidin-4-yl}piperazine]",> 10,> 10
"Cc1csc2ncnc(NC3CONC3=O)c12 (stereo not drawn) [Example 80, 4-({5-methylthieno[2,3-d]pyrimidin-4-yl}amino)-1,2-oxazolidin-3-one]",> 10,> 10
"Cc1csc2ncnc(NCCN(C)C)c12 [Example 70, dimethyl[2-({5-methylthieno[2,3-d]pyrimidin-4-yl}amino)ethyl]amine]",> 10,> 10
"C#CCNc1ncnc2scc(C)c12 [Example 51, 5-methyl-N-(prop-2-yn-1-yl)thieno[2,3-d]pyrimidin-4-amine]",> 10,> 10
"COc1cccc(N2CCN(c3ncnc4scc(C)c34)CC2)c1 [Example 263, 1-(3-methoxyphenyl)-4-{5-methylthieno[2,3-d]pyrimidin-4-yl}piperazine]",> 10,> 10
"Cc1csc2ncnc(N(CCC#N)Cc3cccnc3)c12 [Example 232, 3-({5-methylthieno[2,3-d]pyrimidin-4-yl}(pyridin-3-ylmethyl)amino)propanenitrile]",> 10,> 10
"CCN(CC)CCN(Cc1ccccc1)c1ncnc2scc(C)c12 [Example 272, N-benzyl-N-[2-(diethylamino)ethyl]-5-methylthieno[2,3-d]pyrimidin-4-amine]",> 10,> 10
"Cc1csc2ncnc(N3CCC(O)(c4ccc(Cl)cc4)CC3)c12 [Example 280, 4-(4-chlorophenyl)-1-{5-methylthieno[2,3-d]pyrimidin-4-yl}piperidin-4-ol]",> 10,> 10
"Cc1csc2ncnc(NCCCN3CCCC3=O)c12 [Example 132, 1-[3-({5-methylthieno[2,3-d]pyrimidin-4-yl}amino)propyl]pyrrolidin-2-one]",> 10,> 10
"Cc1csc2ncnc(N(C)C)c12 [Example 178, N,N,5-trimethylthieno[2,3-d]pyrimidin-4-amine]",> 10,> 10
"Cc1csc2ncnc(N(C)Cc3cccc4ccccc34)c12 [Example 274, N,5-dimethyl-N-(naphthalen-1-ylmethyl)thieno[2,3-d]pyrimidin-4-amine]",> 10,> 10
